Reference: publication PMC6522510 (Nature Communications, 2019)

Assays:
Parameters in all cases: species or system AML cell lines (8); Primary HTS, single concentration about 10 uM, Cell Titer Glo viability; log10 luminescence, per cent inhibition relative to cycloheximide control
Conditions in all cases: 72 h, relative to cycloheximide control, log10 luminescence; inhibitor
[1] = tested on: CHRF288-11
[2] = tested on: CMK
[3] = tested on: CMS
[4] = tested on: M07e
[5] = tested on: ML-2
[6] = tested on: MOLM-13
[7] = tested on: MV4-11
[8] = tested on: U937

Structure (SMILES)	CHRF288-11 %inh [1] [%]	CMK %inh [2] [%]	CMS %inh [3] [%]	M07e %inh [4] [%]	ML-2 %inh [5] [%]	MOLM-13 %inh [6] [%]	MV4-11 %inh [7] [%]	U937 %inh [8] [%]
CNC(=O)c1cccc(C#Cc2cncnc2Nc2ccc(OCc3cccc(F)c3)c(Cl)c2)c1 [SJ000573135-1, U17545/42/1]	-0.4909	2.154	2.176	2.556	1.577	2.058	0.5885	0.8403
Cc1nc(-c2ccccc2)n2nc(NCCCN3CCOCC3)ncc12 [SJ000573136-1, U19891/100/1]	6.275	23.01	0.3241	-0.8598	5.663	7.46	3.076	1.344
N#Cc1cccc(Nc2ncc(-c3ccccc3)o2)c1 [SJ000573137-1, U15924/27/1]	-9.448	10.57	-1.613	-5.302	1.759	64.56	38.03	0.4025
CC1=C(C(=O)Nc2ccc3[nH]ncc3c2)C(c2ccc3ccccc3c2)CC(=O)N1 (stereo not shown) [SJ000573139-1, KG204183-124A1]	15.76	48.89	1.368	1.439	11.01	1.247	30.46	2.011
NS(=O)(=O)c1ccc(-c2ccc3c(NC(=O)C4CC4)n[nH]c3c2)cc1 [SJ000573140-1, VB100064-161A1]	4.361	-4.867	-3.489	-0.07238	0.5159	-3.649	-0.6023	-0.5779
CNC(=O)Oc1cc(C)c(/C=C/c2cncc(C(=O)NC)c2)c(C)c1 [SJ000573141-1, U11962/26/1]	7.117	8.893	-0.3622	6.045	1.2	3.548	1.51	0.6726
Nc1nccc(-c2c(-c3ccc(F)cc3)nn3cc(C(F)(F)F)ccc23)n1 [SJ000573142-1, U14741/95/1]	1.132	-0.4076	-0.8913	93.92	1.904	0.5656	-1.787	-1.917
N#Cc1ccc2c(-c3ccnc(NC4CC4)n3)c(-c3ccc(F)cc3)nn2c1 [SJ000573143-1, U15304/34/1]	-0.1104	2.803	2.587	7.135	1.142	2.3	-1.164	0.4809
Fc1ccc(-c2ncn(CCCN3CCOCC3)c2-c2ccncc2)cc1 [SJ000573144-1, LDD-19018-277B]	5.233	29.46	-0.05724	0.1764	2.361	2.986	-0.2277	-0.4661
O=C(Nc1n[nH]c2nc(-c3ccco3)c(Br)cc12)C1CC1 [SJ000573145-1, AG201339-071A1]	-1.607	0.1482	6.31	-5.829	-0.5766	0.2319	10.91	-0.3135
CN(C)CCCn1c(-c2nonc2N)nc2cnccc21 [SJ000573146-1, NB100580-138A1]	-1.122	9.262	-2.565	-3.074	-0.381	-2.29	-1.385	0.1912
O=C(Nc1n[nH]c2cc(-c3ccc(F)cc3)ccc12)C1CC1 [SJ000573147-1, VB100064-137A1]	23.72	55.62	-1.795	6.083	9.118	13.56	-2.4	28.55
O=C1NC(=O)C(c2ccc(Cl)cc2)=C1Nc1ccc(Cl)c(C(=O)O)c1 [SJ000573148-1, DH98298-170B2]	-1.873	-5.939	-1.744	-2.934	0.6305	-3.138	-6.646	-3.231
O=C(Nc1ccc(Oc2ccc3[nH]c(NC(=O)c4ccccc4)nc3c2)cc1)Nc1cc(C(F)(F)F)ccc1F [SJ000573149-1, T261/94/4]	9.652	59.46	32.92	22.27	33.71	108.7	91.44	43.21
CS(=O)(=O)CCNCc1ccc(-c2ccc3ncnc(Nc4ccc(OCc5cccc(F)c5)c(C(F)(F)F)c4)c3c2)o1 [SJ000573152-1, U14859/108/1]	2.26	-0.9918	-1.451	0.4672	2.813	2.035	3.001	2.673
O=C(Nc1n[nH]c2nc(-c3ccc(O)cc3)c(Br)cc12)C1CC1 [SJ000573153-1, AN100368-079A1]	61.88	121.4	105	20.28	13.84	85.66	59.64	31.9
c1ccc(Oc2ccc(Nc3ncc(-c4ccccc4)o3)cc2)cc1 [SJ000573154-1, U15924/95/2]	-6.587	-2.277	-3.51	-0.6223	0.5718	-2.365	-2.884	3.231
COc1cccc(-n2ncc3c(N/N=C/c4ccc(C(=O)NCCN(C)C)cc4)ncnc32)c1 [SJ000573155-1, U16945/190/1]	128.6	38.62	51.58	23.03	12.67	33.75	45.9	26.01
CCn1c(-c2nonc2N)nc2ccccc21 [SJ000573156-1, U17602/18/1 | JT100597-005A1]	-4.898	-4.724	-3.86	0.4432	2.051	-2.502	-3.157	-1.491
Cc1cc(-c2ccco2)cc(C)c1/C=C/c1cncc(-c2nn[nH]n2)c1 [SJ000573157-1, T209/165/1]	6.913	-3.964	1.933	4.709	0.8109	-1.72	-0.5767	-2.587
COC(=O)Nc1nc2ccc(Oc3ccc(NC(=O)Nc4cccc(Cl)c4)cc3)cc2[nH]1 [SJ000573158-1, T278/6/1]	9.893	60.27	11.78	46.36	61.89	98.07	87.76	93.62
ON=C1CCc2cc(-c3nc(C4CCNCC4)[nH]c3-c3ccncc3)ccc21 [SJ000573159-1, DD48690-004A1]	-1.561	-2.711	1.757	1.161	3.813	2.332	-4.441	-1.918
O=C(O[C@H]1CN[C@H](C#Cc2cc3ncnc(Nc4ccc5c(ccn5Cc5cc(F)ccc5F)c4)c3s2)C1)N1CCOCC1 [SJ000573160-1, U20298/150/2]	10.62	5.697	12.05	-0.7728	4.843	10.52	8.297	14.13
